How the values were obtained:
tubulin [1] = assay: Inhibition of [3H]colchicine binding to tubulin; conditions: for Inhib. colch. binding 1-5-5 (% ± SD): inhibitor at 1:5:5 μM
Method: (§1) The assembly reaction mixtures contained 0.8 M monosodium glutamate (pH 6.6 with HCl in a 2 M stock solution), 10 μM tubulin, 4% (v/v) DMSO, and varying concentrations of the drug. Following a 15 min preincubation at 30 °C, samples were chilled on ice, GTP to 0.4 mM was added, and turbidity development was followed at 350 nm in a temperature-controlled recording spectrophotometer for 20 min at 30 °C. The extent of reaction was measured. Full experimental details were previously described.[63] For the colchicine binding assay, reaction mixtures contained 1.0 μM tubulin, 5.0 μM [^3H]colchicine, and 5.0 or 1.0 μM inhibitor and were incubated for 10 min at 37 °C. Complete details were described previously.[64]

[2] = system: MCF-7 human breast carcinoma cells; assay: Inhibition of the growth of MCF-7 human breast carcinoma cells; assay type: cell-based; conditions: for IC50: Homo sapiens, MCF7, inhibition of cell growth, cells grown for 96 h, read-out: MCF-7 IC50 ± SD
Method: The methodology for the evaluation of the growth of human MCF-7 breast carcinoma cells was previously described, except that cells were grown for 96 h for IC50 determinations.[66] U-87 MG and OVCAR-3 proliferation assays were performed plating 10^4 cells/cm^2 in a Multiwell 24. The day after, cells were treated with compound 15, and DMSO was used as a control. Cells were counted 48 h later with a Bürker counting chamber, after dilution in TrypanBlue (#T6146 Sigma-Aldrich).

tubulin [3] = assay: Inhibition of tubulin polymerization (assembly assay); assay type: biochemical; conditions: tubulin at 10 μM, read-out: Tubulin IC50 ± SD
Method: as §1

[4] = Metabolic stability in human liver microsomes; assay type: in vitro ADME; conditions: HLM 0.5 mg/mL, 1 μM, n = 2
Method: (§2) Mouse (Sigma Aldrich, CD-1 male, pooled) and human microsomes (Sigma Aldrich, human, pooled) at 0.5 mg/mL were preincubated with the test compound 15 dissolved in DMSO at 1 μM in phosphate buffer 50 mM, pH 7.4, and 3 mM MgCl2 for 10 min at 37 °C. The reaction was then started by adding the cofactor mixture solution (NADP, glucose-6-phosphate, glucose-6-phosphate dehydrogenase in 2% NaHCO3). Samples were taken at 0, 10, 30, 45, and 60 min and added to acetonitrile to stop the reaction. Samples were then centrifuged, and the supernatant was analyzed by LC–MS/MS to quantify the amount of the compound. A control sample without the cofactor was always added to check the chemical stability of the test compound. […] A fixed concentration of verapamil was added in every sample as an internal standard for LC–MS/MS analyses. The percentage of the area of the test compound remaining at the various incubation times was calculated with respect to the area of the compound at time 0 min.
(§3) The rate constant, k (min^–1), derived for the exponential decay equation (peak area/IS vs time), was used to calculate the rate of Cli.
(§4) Samples were analyzed under the following conditions: UPLC Waters coupled with an API 3200 triple-quadrupole (ABSciex); eluents, (phase A) 95% water, 5% acetonitrile + 0.1% HCOOH, (phase B) 5% water, 95% acetonitrile + 0.1% HCOOH; flow rate, 0.3 mL/min; column, Gemini-Nx 5 μm C18 110A (50 × 2.00 mm) at 35 °C; injection volume, 10 μL. Source conditions ESI positive: T 400 °C, Gas 1 30, Gas 2 35, CUR 30, IS 5500, CAD 5.

[5] = Metabolic stability in mouse liver microsomes; assay type: in vitro ADME; conditions: MLM 0.5 mg/mL, 1 μM, n = 2
Method: as §2, §3, §4

Structure (SMILES)	Inhib. colch. binding 1-5-5 (% ± SD) (tubulin [1])	melting point	IC50 [2]	IC50 (tubulin [3])	Cli ± SD [4]	t1/2 ± SD [4]	Cli ± SD [5]	half-life at 1 h, 1 µM ([5]; male, CD-1, mouse, liver microsomes, pH 7.4, read-out: t1/2 ± SD)	Inhibition of [3H]colchicine binding 1:5:1 (tubulin [1]; inhibitor at 1:5:1 μM, 1 µM)	Inhibition of MCF-7 cell growth (in words) [2]
COc1cc(C(=O)c2ccn(-c3ccccn3)c2)cc(OC)c1OC [Compound 2, (1-(Pyridin-2-yl)-1H-pyrrol-3-yl)(3,4,5-trimethoxyphenyl)methanone]	83 ± 0.4%	120 to 125 °C	1100 ± 300 nM	480 ± 100 nM						
COc1cc(C(=O)c2ccn(-c3cccnc3)c2)cc(OC)c1OC [Compound 3, (1-(Pyridin-3-yl)-1H-pyrrol-3-yl)(3,4,5-trimethoxyphenyl)methanone]	38 ± 3%		2500 ± 70 nM	1200 ± 100 nM						
COc1cc(C(=O)c2ccn(-c3ccncc3)c2)cc(OC)c1OC [Compound 4, (1-(Pyridin-4-yl)-1H-pyrrol-3-yl)(3,4,5-trimethoxyphenyl)methanone]	1.4 ± 5%		2500 ± 70 nM	> 20000 nM						
COc1cc(C(=O)c2ccn(-c3ncccn3)c2)cc(OC)c1OC [Compound 5, (1-(Pyrimidin-2-yl)-1H-pyrrol-3-yl)(3,4,5-trimethoxyphenyl)methanone]	82 ± 1%		220 nM	490 ± 10 nM						
COc1cc(C(=O)c2cn(-c3ccccn3)cc2-c2ccccc2)cc(OC)c1OC [Compound 6, (4-Phenyl-1-(pyridin-2-yl)-1H-pyrrol-3-yl)(3,4,5-trimethoxyphenyl)methanone]	92 ± 0.5%	150 to 152 °C	18 ± 2 nM	430 ± 1 nM						
COc1cc(C(=O)c2cn(-c3cccnc3)cc2-c2ccccc2)cc(OC)c1OC [Compound 7, (4-Phenyl-1-(pyridin-3-yl)-1H-pyrrol-3-yl)(3,4,5-trimethoxyphenyl)methanone]	52 ± 5%	171 to 173 °C	50 ± 10 nM	740 ± 10 nM						
CCOc1ccc2ccc(=O)oc2c1 [Compound 7-EC, 7-ethoxycoumarin, reference compound]					231.3 ± 37.5 μL/min/mg protein	6.1 ± 1.0 min	710.8 ± 1.2 μL/min/mg protein	2 ± 0.1 min		
COc1cc(C(=O)c2cn(-c3ccncc3)cc2-c2ccccc2)cc(OC)c1OC [Compound 8, (4-Phenyl-1-(pyridin-4-yl)-1H-pyrrol-3-yl)(3,4,5-trimethoxyphenyl)methanone]	17 ± 4%		2700 ± 500 nM	6700 ± 100 nM						weak inhibitors

Second part, led by results:

Inhib. colch. binding 1-5-5 (% ± SD) (tubulin [1])	melting point	IC50 [2]	IC50 (tubulin [3])	Cli ± SD [4]	t1/2 ± SD [4]	Cli ± SD [5]	half-life at 1 h, 1 µM ([5]; male, CD-1, mouse, liver microsomes, pH 7.4, read-out: t1/2 ± SD)	Inhibition of [3H]colchicine binding 1:5:1 (tubulin [1]; inhibitor at 1:5:1 μM, 1 µM)	Structure (SMILES)	Inhibition of MCF-7 cell growth (in words) [2]
95 ± 0.9%		18 ± 4 nM	740 nM					69%	COc1cc(C(=O)c2cn(-c3ccccn3)cc2-c2ccco2)cc(OC)c1OC [Compound 9, (4-(Furan-2-yl)-1-(pyridin-2-yl)-1H-pyrrol-3-yl)(3,4,5-trimethoxyphenyl)methanone]	
77 ± 0.1%		39 ± 2 nM	1100 ± 20 nM						COc1cc(C(=O)c2cn(-c3cccnc3)cc2-c2ccco2)cc(OC)c1OC [Compound 10, (4-(Furan-2-yl)-1-(pyridin-3-yl)-1H-pyrrol-3-yl)(3,4,5-trimethoxyphenyl)methanone]	
35 ± 3%		500 ± 70 nM	3800 ± 700 nM						COc1cc(C(=O)c2cn(-c3ccncc3)cc2-c2ccco2)cc(OC)c1OC [Compound 11, (4-(Furan-2-yl)-1-(pyridin-4-yl)-1H-pyrrol-3-yl)(3,4,5-trimethoxyphenyl)methanone]	weak inhibitors
86 ± 2%		29 ± 1 nM	910 ± 50 nM						COc1cc(C(=O)c2cn(-c3cnccn3)cc2-c2ccco2)cc(OC)c1OC [Compound 12, (4-(Furan-2-yl)-1-(pyrazin-2-yl)-1H-pyrrol-3-yl)(3,4,5-trimethoxyphenyl)methanone]	strong inhibition
88 ± 2%		25 ± 8 nM	690 ± 100 nM						COc1cc(C(=O)c2cn(-c3ncccn3)cc2-c2ccccc2)cc(OC)c1OC [Compound 13, (4-Phenyl-1-(pyrimidin-2-yl)-1H-pyrrol-3-yl)(3,4,5-trimethoxyphenyl)methanone]	strong inhibition
4.7 ± 5%		> 5000 nM	> 20000 nM						COc1cc(C(=O)c2cn(-c3cncnc3)cc2-c2ccccc2)cc(OC)c1OC [Compound 14, (4-Phenyl-1-(pyrimidin-5-yl)-1H-pyrrol-3-yl)(3,4,5-trimethoxyphenyl)methanone]	poor inhibitors
19 ± 2%		580 ± 30 nM	6700 ± 900 nM						COc1cc(C(=O)c2cn(-c3cncnc3)cc2-c2ccco2)cc(OC)c1OC [Compound 16, (4-(Furan-2-yl)-1-(pyrimidin-5-yl)-1H-pyrrol-3-yl)(3,4,5-trimethoxyphenyl)methanone]	poor inhibitors

— PMC9743090, “Induction of Ferroptosis in Glioblastoma and Ovarian Cancers by a New Pyrrole Tubulin Assembly Inhibitor” (Journal of Medicinal Chemistry, 2022)
